# Assay results as given in US9334272B2, “Derivatives of purinic and pyrimidinic antiviral agents and use thereof as potent anticancer agents” (Ramot at Tel-Aviv University Ltd., priority 2007, dated 2016).
# What was measured:
# [1] = tested on: U-251 cells; test: Hoechst viability assay, U-251 glioma cells; type: cell-based, human
# Experimental: (§1) Cells (in quadruplicate) at the specified density were suspended in 200 μL medium supplemented with 10% FCS seeded in 96-well plates for 24 hours, then exposed to the drugs for 72 hours. The viability of the cells was determined by Hoechst fluorescent assay as described by Nudelman et al., 2005. Leukemic cell viability after 72 hours of treatment was determined by an MTT (3-(4,5-dimethylthiazol-2-yl)-2,5-diphenyltetrazolium bromide) assay as described by Levovich et al., 2007.
# (§2) IC50 values were determined by linear regression of the percentage of survival following drug titration.
# [2] = tested on: U-251 cells; test: Mitochondrial membrane potential (JC-1 staining), U-251 cells; type: cell-based, human; conditions: 60 μM, 24 hour treatment
# [3] = tested on: 22RV1 cells; test: Hoechst viability assay, 22RV1 prostate carcinoma cells; type: cell-based, human
# Experimental: as §1, §2
# [4] = tested on: p21; test: p21 Western blot, U-251 cells; type: cell-based, human; conditions: compared with Compound 12 and acyclovir
# Experimental: Cell lysates or acid extracted histones were solubilized in a concentrated (×4) loading buffer (62.5 mM Tris-HCl, pH 6.8, 1% SDS, 10% glycerol v/v, 1% dithiothreitol (DTT) and 0.1 mg/ml bromophenol blue). Proteins (10-40 μg) were run on SDS-PAGE, transferred to a nitrocellulose membrane (Schleicher & Schuell, Germany) and probed with the primary antibodies, followed by incubation with a horseradish peroxidase (HRP)-goat anti-rabbit IgG or HRP-rabbit anti-mouse IgG as secondary antibodies. HRP bound to the secondary antibodies was visualized by the enhanced chemiluminescence method using the Western Blotting Luminol reagent (Santa Cruz, Calif., USA). The membrane was exposed for 5 minutes to Chemiluminescence BioMax light film (Kodak, USA) and the intensity of the bands was measured with a VersaDoc instrument with a Quantityl program (Bio-Rad, USA). The fold increase of each specific protein was determined by the ratio of band intensities of treated and untreated cells, normalized to loading control (actin or total histone H3).
# [5] = tested on: acetylated histone H4; test: In vivo histone H4 acetylation in 4T1 tumors (Western blot); set-up: species or system mice; conditions: 100 mg/kg each, 4 hours after treatment, vs vehicle
# Experimental: (§3) For the determination of in vitro histone acetylation, 2.5-3×10^6 cells, seeded in 100 mm culture dishes, were supplemented with RPMI medium containing 10% heat inactivated FCS and were treated with the drugs the following day. At the specified times post-treatment, the cells were removed with a rubber policeman, centrifuged, washed, lysed with lysis buffer (PBS, Nonidet® NP-40 1%, sodium deoxycholate 0.5%, sodium dodecyl sulfate (SDS) 0.1%, 1 mM phenylmethylsulfonyl fluoride (PMSF), 1 mM sodium orthovanadate, and 1 μM each of leupeptin and pepstatin) and centrifuged at 10,000 g for 10 minutes at 4° C. […] The extract was then lyophilized, and protein concentration was determined with a BCA kit (Pierce, USA). […] The fold increase of acetylated histones was determined by the ratio of band intensities of treated and untreated cells or mice, normalized to loading control (total histone H3).
# (§4) Cell lysates or acid extracted histones were solubilized in a concentrated (×4) loading buffer (62.5 mM Tris-HCl, pH 6.8, 1% SDS, 10% glycerol v/v, 1% dithiothreitol (DTT) and 0.1 mg/ml bromophenol blue). […] The membrane was exposed for 5 minutes to Chemiluminescence BioMax light film (Kodak, USA) and the intensity of the bands was measured with a VersaDoc instrument with a Quantityl program (Bio-Rad, USA). […]
# [6] = tested on: HL-60 cells; test: MTT viability assay, HL-60 leukemic cells; type: cell-based, human
# Experimental: as §1, §2
# [7] = tested on: primary rat astrocytes; conditions: 50 μM, 24 hours
# Experimental: Brains were removed from neonatal rats, and the cerebral cortex was dissected and minced. The cells were dissociated by vigorous shaking in DMEM supplemented with 20% FCS, and cells from 3 brains were seeded in 20 mL of the medium. After one week, the serum concentration was reduced to 10%.
# Cells were seeded in six-well plates (10^5 cells/well) for 24 hours and were then treated as specified, trypsinized, washed with PBS, double-stained with annexin V-FITC (fluorescein isothiocyanate) and propidium iodide, according to the manufacturer's instructions and subjected to flow cytometry analysis (FACScalibur cytometer, Becton Dickinson).
# [8] = tested on: acetylated histone H4; test: Histone H4 acetylation Western blot, U-251 cells; type: cell-based, human; conditions: 2-4 hours of treatment
# Experimental: as §3, §4
# [9] = Acute toxicity assay in mice; type: in vivo; conditions: male, mouse, in vivo; single per os dose, ICR mice
# Excerpt: (§5) Male ICR mice, 8 weeks old (Harlan, Israel) were acclimated for 10 days before administration of the tested compounds. The animals were monitored for two weeks and weighed three times per week.
# [10] = tested on: ICR mice; test: Acute toxicity assay in mice; type: in vivo; conditions: 2 weeks
# Excerpt: as §5
# [11] = target: T1, proteasome (Homo sapiens, UniProt P28074); test: Proteasome activity assay, U-251 cells; type: cell-based; conditions: U-251, 50 μM
# T1 construct: proteasome activity in U-251 cells treated for 4 or 24 hours; endogenous in cells; host or cells: U-251 cells (lysates of treated cells)
# T1 sequence (P28074 60-263): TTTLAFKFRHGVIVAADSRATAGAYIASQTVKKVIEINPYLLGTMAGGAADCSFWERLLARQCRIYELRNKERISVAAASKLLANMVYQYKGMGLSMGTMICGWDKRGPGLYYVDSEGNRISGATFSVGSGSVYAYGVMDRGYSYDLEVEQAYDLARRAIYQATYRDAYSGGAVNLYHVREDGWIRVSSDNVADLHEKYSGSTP
# Experimental: The peptidase or chymotrypsin-like activity of the proteasome was assayed using N-succinyl-Leu-Leu-Val-Tyr-7-amido-4-methylcoumarin. The lysates (100 μL) were incubated with 13 (M of the substrate in 100 mM Tris, pH 7.5, for 1 hour with shaking at room temperature. The reaction was stopped by addition of ice-cold ethanol, and the samples were centrifuged for 5 minutes at 2500 g. The supernatants were collected and the fluorescence was measured with excitation/emission filters of 390/460 nm using the FluoStar fluorimeter. The protein concentration was determined using a BCATM kit (Pierce) and the proteasome activity was derived from the ratio of fluorescence at 460 nm/(g of protein. The percentage of proteasome activity was calculated relative to untreated cells.
# [12] = tested on: U-251 cells; test: Reactive oxygen species by DCF-DA FACS, U-251 cells; type: cell-based, human; conditions: 2 hour treatment
# Experimental: ROS levels were determined by FACS analysis of U-251 cells treated with dichlorodihydrofluorescein diacetate (DCF-DA), which becomes fluorescent when oxidized.
# [13] = Homo sapiens, 72 hours, Hoechst, read-out: IC50
smiles,measurement,setting,value
"CCCC(CCC)C(=O)Nc1nc2c(ncn2COCCOC(=O)C(CCC)CCC)c(=O)[nH]1 [Compound 6, N-valproyl-9-(2-valproyloxy)ethoxymethylguanine]",activity relative to acyclovir,[1],> 100 fold
same,IC50,[1]; [13],32 ± 2 µM
same,mitochondrial membrane potential,[2],increased the number of mitochondria with reduced membrane potentials
same,activity relative to acyclovir,[3],> 100 fold
same,IC50,[3]; [13],23.2 ± 1.9 µM
same,expression of p21,[4],induces expression of the cyclin dependent kinase inhibitor p21 more quickly and to a greater extent
same,levels of acetylated H4 in tumors,[5],significantly higher levels of acetylated H4
same,IC50 fold lower than that of VA,[6],over 20 fold
same,IC50 fold lower than that of the mixture of VA and acyclovir,[6]; acyclovir:VA 1:2,over 50 fold
same,viability of primary culture of astrocytes,[7],did not affect the viability
same,acetylation of histone H4,[8],induced acetylation of H4
same,LD50 at 2 weeks,[9],> 750 mg/kg
same,Survival (%),[10]; single per os dose 150 mg/kg,100%
same,Survival (%),[10]; single per os dose 200 mg/kg,100%
same,Survival (%),[10]; single per os dose 250 mg/kg,91.8%
same,Survival (%),[10]; single per os dose 500 mg/kg,100%
same,Survival (%),[10]; single per os dose 750 mg/kg,100%
same,inhibition at 50 µM,[11]; after 4 hours,> 50%
same,inhibition at 50 µM,[11]; after 24 hours,> 75%
same,level of oxidation in cells (ROS),[12],considerably increased the level of oxidation in cells
